Columns and labels:
Assay type in all cases: cell-based
[1] = biological target: T1, EGFR WT (Ba/F3 cells) (Homo sapiens, UniProt P00533); assay: Inhibitor activity on EGFR-dependent cell growth (CellTiter-Glo, 72 h), Ba/F3 EGFR WT; conditions: read-out: BaF3 WT IC50
T1 construct: expressed in transfected cells; host or cells: Ba/F3 (murine pro-B cells), retroviral transduction, puromycin selection, maintained with EGF
In short: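 This growth assay used Ba/F3 cells that depend on wild-type EGFR and are kept in EGF without IL3. Compounds were made up as 10 mM DMSO stocks and diluted 3-fold over 10 points. 120 nL went onto 600 cells/well. After 72 hours, 40 μL CellTiter-Glo was added and luminescence read on EnVision after 30 min.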

[2] = biological target: T2, EGFR exon 20 ASV Ins V769_D770 (Ba/F3 cells) (Homo sapiens, UniProt P00533, INS769ASV); assay: Inhibitor activity on EGFR-dependent cell growth (CellTiter-Glo, 72 h), Ba/F3 EGFR exon 20 ASV Ins; conditions: read-out: BaF3 ASV IC50
T2 construct: expressed in transfected cells; host or cells: Ba/F3 (murine pro-B cells), retroviral transduction, puromycin selection, IL3-independent pool
T2 sequence (P00533 with tags, fused parts or gaps INS769ASV): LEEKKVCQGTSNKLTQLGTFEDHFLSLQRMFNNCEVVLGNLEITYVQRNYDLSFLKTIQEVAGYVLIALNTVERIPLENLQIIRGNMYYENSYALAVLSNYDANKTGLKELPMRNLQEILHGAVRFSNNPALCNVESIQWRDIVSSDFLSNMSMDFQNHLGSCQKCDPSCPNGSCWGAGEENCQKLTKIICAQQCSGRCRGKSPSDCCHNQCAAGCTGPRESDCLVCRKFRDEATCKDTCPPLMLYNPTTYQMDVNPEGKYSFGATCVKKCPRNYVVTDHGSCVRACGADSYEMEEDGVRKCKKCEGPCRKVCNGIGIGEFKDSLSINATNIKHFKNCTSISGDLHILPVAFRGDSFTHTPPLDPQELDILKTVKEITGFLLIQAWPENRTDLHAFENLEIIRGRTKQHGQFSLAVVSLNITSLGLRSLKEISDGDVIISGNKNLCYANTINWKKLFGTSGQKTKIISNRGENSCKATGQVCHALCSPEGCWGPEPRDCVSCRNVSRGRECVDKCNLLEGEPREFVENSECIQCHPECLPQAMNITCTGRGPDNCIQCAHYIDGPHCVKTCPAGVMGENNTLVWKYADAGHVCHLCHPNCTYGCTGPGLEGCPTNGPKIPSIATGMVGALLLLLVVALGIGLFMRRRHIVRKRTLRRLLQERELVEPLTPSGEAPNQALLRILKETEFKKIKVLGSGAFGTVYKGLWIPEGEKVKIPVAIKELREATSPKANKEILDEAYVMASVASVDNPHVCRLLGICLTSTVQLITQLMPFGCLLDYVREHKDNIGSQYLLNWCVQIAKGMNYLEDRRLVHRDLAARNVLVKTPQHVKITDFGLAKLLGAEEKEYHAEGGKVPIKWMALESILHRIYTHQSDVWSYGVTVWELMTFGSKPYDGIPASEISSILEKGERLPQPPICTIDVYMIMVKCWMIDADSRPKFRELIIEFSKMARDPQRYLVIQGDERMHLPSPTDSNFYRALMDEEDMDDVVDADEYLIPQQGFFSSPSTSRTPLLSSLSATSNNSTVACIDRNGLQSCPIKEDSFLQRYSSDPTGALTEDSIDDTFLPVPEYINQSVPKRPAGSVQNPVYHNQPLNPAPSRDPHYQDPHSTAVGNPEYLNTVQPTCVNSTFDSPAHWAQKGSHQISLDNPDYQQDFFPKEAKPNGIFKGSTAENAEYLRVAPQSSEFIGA
In short: (§1)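 IC50s derive from a sigmoidal dose–response fit of CellTiter-Glo signal. The signal was normalised between […]-treated cells and cell-free medium. Ba/F3 mutant-EGFR cells, seeded at 400–800/well depending on the line, had 72 h of exposure to a 10-point, 3-fold compound series.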

[3] = biological target: T3, EGFR exon 20 SVD Ins D770_N771 (Ba/F3 cells) (Homo sapiens, UniProt P00533, INS770SVD); assay: Inhibitor activity on EGFR-dependent cell growth (CellTiter-Glo, 72 h), Ba/F3 EGFR exon 20 SVD Ins; conditions: read-out: BaF3 SVD IC50
T3 construct: expressed in transfected cells; host or cells: Ba/F3 (murine pro-B cells), retroviral transduction, puromycin selection, IL3-independent pool
T3 sequence (P00533 with tags, fused parts or gaps INS770SVD): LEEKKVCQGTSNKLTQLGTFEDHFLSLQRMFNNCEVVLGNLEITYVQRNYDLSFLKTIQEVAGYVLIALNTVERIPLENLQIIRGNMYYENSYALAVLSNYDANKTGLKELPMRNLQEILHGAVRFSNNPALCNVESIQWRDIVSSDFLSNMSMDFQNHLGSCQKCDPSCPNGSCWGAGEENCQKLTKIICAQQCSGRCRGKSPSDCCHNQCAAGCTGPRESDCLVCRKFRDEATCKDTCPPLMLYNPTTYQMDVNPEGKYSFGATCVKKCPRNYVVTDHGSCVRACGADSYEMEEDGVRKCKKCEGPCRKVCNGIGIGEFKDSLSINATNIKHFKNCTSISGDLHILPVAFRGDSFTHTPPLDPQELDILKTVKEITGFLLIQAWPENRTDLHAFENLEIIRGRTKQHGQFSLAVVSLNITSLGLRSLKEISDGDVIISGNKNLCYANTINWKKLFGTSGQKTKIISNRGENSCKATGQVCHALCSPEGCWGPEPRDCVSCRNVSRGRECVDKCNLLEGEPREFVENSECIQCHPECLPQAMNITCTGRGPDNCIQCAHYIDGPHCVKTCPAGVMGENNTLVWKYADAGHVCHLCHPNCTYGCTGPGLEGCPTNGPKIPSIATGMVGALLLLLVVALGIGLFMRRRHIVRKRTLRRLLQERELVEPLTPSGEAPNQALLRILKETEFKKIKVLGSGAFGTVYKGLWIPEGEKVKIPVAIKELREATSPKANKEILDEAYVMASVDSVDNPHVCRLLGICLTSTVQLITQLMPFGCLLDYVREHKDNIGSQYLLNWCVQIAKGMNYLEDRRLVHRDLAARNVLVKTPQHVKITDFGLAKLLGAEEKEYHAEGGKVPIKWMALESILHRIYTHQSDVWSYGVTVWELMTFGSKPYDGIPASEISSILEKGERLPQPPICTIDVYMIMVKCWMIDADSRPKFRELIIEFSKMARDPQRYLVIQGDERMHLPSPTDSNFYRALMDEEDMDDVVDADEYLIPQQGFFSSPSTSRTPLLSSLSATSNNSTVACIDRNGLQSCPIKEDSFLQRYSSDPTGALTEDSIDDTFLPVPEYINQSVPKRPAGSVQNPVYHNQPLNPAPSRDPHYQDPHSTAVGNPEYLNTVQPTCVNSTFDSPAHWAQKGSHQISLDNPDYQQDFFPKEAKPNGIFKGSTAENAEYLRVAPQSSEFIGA
In short: as §1

[4] = biological target: T4, EGFR exon 20 FQEA Ins A763_V764 (Ba/F3 cells) (Homo sapiens, UniProt P00533, INS763FQEA); assay: Inhibitor activity on EGFR-dependent cell growth (CellTiter-Glo, 72 h), Ba/F3 EGFR exon 20 FQEA Ins; conditions: read-out: BaF3 FQEA IC50
T4 construct: expressed in transfected cells; host or cells: Ba/F3 (murine pro-B cells), retroviral transduction, puromycin selection, IL3-independent pool
T4 sequence (P00533 with tags, fused parts or gaps INS763FQEA): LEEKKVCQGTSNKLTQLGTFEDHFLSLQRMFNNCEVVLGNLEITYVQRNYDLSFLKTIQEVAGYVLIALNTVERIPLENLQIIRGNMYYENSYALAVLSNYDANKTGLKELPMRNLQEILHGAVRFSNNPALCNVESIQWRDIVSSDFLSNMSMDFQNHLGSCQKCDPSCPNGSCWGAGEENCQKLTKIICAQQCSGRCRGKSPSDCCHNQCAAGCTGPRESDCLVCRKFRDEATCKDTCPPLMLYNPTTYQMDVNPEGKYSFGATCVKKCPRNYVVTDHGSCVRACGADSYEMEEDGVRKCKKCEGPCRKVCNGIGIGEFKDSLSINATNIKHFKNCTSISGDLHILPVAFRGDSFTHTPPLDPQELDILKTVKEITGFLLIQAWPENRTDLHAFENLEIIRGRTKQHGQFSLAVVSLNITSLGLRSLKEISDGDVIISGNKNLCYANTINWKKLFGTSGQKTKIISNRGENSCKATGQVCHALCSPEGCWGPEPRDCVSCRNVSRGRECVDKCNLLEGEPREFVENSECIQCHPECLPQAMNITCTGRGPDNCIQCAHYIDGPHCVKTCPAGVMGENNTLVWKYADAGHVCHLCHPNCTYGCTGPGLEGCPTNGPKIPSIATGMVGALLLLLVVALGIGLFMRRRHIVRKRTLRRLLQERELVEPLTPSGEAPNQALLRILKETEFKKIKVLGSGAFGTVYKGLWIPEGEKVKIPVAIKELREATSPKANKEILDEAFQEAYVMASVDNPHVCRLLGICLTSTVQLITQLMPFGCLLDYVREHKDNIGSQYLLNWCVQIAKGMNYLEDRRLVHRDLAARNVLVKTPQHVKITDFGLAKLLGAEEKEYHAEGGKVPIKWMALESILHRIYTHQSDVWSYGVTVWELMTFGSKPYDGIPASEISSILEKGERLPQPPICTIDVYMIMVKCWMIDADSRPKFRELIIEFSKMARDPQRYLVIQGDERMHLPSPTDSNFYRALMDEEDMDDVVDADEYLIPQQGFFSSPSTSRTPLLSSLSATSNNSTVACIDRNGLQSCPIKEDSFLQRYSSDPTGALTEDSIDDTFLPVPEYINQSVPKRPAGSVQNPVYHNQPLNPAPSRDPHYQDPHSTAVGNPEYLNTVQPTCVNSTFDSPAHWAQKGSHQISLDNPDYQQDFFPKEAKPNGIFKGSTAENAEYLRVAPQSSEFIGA
In short: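 Cell viability was measured by CellTiter-Glo after a three-day treatment. The IL3-free Ba/F3 lines carried L858R, L858R/C797S, exon 19 deletion or FQEA insertion EGFR and were seeded at 400, 600, 800 and 800 cells/well respectively.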

[5] = biological target: T2, EGFR exon 20 ASV Ins V769_D770 (Ba/F3 cells); assay: Inhibitor activity on EGFR phosphorylation (pEGFR AlphaLISA, 2 h), Ba/F3 EGFR exon 20 ASV Ins; conditions: EGFR phosphorylation, AlphaLISA, 2 hours; read-out: ASV IC50 (pEGFR)
From the text: Example B. Inhibitor Activity on EGFR phosphorylation (pEGFR)
EGFR mutant Ba/F3 cells were generated by transduction with retrovirus containing vectors expressing EGFR L858R, EGFR exon 19del, EGFR L858R/C797S, EGFR exon 20 NPG Ins D770_N771, EGFR exon 20 ASV Ins V769_D770, or EGFR exon 20 SVD Ins D770_N771 genes along with a puromycin selection marker. Transduced cells are selected with puromycin for 7 days and are then be transferred into culture media without Interleukin 3 (IL3). Surviving cells are confirmed to express EGFR by Western blot and maintained as a pool. CUTO14 cells were obtained from Dr. Robert C. Doebele at the University of Colorado. The IC50 date are included in Table 6 and Table 7.
1.1 Cells are harvested from flask into cell culture medium and the cell number counted.
1.2 Cells are diluted with culture medium to the desired density and 40 μL of cell suspension is added into each well of 384-well cell culture plate and the seeding density is 50K cells/well (Ba/F3) or 12.5K cells/well (CUTO14).
2 Compound Preparation and Treatment
2.1 Test compounds are dissolved to 10 mM in a DMSO stock solution. 45 μL of stock solution is transferred to a 384 polypropylene plate (pp-plate). Perform 3-fold, 10-point dilution via transferring 15 μL compound into 30 μL DMSO using a TECAN (EVO200) liquid handler.
2.2 Spin plates at room temperature at 1,000 RPM for 1 minute.
2.3 Transfer 5 nL of diluted compound from compound source plate into the cell plate.
2.4 After compound treatment for 2 hours, perform pEGFR detection by AlphaLISA for compound treatment plates as described in “Detection” section.
3 Detection by pEGFR AlphaLISA (Perkin-Elmer)
3.1 Plates are removed from incubators and equilibrated at room temperature for 10 minutes, and media was removed
3.2 10 μL of lysis buffer is added and plates shaken at 600 rpm for 1 hr.
3.3 Prepare acceptor mix just before use and dispense 5 μL of acceptor mix to all the wells. Shake 350 rpm for Ihr in the dark
3.4 Prepare donor mix under low light conditions prior to use. Dispense 5 μL of donor mix to all the wells. Mix well on the shaker, seal and wrap in aluminum foil and incubate 1.5 hrs at room temperature in the dark
3.5 Transfer 18.5 μL mixture to OptiPlate 384, and read using an Envision. The IC50 date were included in Table 6 and Table 7.

T1 sequence (P00533 25-1210): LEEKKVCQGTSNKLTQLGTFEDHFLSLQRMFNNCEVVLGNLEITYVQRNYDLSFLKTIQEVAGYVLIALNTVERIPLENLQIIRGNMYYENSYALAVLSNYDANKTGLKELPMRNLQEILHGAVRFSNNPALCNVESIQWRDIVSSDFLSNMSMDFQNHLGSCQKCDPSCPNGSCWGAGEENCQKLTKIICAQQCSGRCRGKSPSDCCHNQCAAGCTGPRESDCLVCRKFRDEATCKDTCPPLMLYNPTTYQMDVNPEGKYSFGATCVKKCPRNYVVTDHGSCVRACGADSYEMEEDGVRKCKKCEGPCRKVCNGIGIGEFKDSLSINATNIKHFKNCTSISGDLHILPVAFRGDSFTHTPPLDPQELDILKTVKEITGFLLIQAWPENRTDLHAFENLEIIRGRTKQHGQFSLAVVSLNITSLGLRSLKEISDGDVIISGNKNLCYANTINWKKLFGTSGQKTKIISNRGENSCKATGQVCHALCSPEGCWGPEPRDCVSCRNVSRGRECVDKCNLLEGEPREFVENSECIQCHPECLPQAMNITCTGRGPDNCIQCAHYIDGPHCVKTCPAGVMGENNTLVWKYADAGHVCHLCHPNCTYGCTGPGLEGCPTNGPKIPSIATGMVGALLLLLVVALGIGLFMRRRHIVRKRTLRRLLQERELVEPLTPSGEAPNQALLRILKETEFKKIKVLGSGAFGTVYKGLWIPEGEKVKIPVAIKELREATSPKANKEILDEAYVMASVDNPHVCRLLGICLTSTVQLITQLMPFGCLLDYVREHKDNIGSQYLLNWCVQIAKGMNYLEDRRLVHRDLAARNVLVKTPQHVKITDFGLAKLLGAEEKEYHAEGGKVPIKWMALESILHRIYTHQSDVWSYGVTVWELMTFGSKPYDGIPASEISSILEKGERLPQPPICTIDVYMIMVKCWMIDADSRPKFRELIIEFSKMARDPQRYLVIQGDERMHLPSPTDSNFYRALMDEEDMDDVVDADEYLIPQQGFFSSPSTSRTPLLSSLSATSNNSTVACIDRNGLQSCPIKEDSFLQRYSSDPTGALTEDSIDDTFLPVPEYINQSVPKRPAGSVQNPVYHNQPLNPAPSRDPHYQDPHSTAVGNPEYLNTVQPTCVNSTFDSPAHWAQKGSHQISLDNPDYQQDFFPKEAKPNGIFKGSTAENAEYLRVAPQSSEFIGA

| SMILES | IC50 [1] [nM] | IC50 [2] [nM] | IC50 [3] [nM] | IC50 [4] [nM] | IC50 [5] [nM] |
| --- | --- | --- | --- | --- | --- |
| COc1c(F)cccc1Nc1c(-c2ccnc3ccc(NC4(C)CC4)nc23)[nH]c2c1C(=O)NCC2 [Compound 695, 3-[(3-fluoro-2-methoxyphenyl)amino]-2-[6-[(1-methylcyclopropyl)amino]-1,5-naphthyridin-4-yl]-1H,5H,6H,7H-pyrrolo[3,2-c]pyridin-4-one; formic acid] | < 100 | < 100 | < 100 | < 100 | < 100 |
| COc1c(Nc2c(-c3ccnc(N)n3)[nH]c3c2C(=O)NCC3)ccc(F)c1F [compound 303] | > 1000 | > 1000 | 100 to 1000 | > 1000 | 100 to 1000 |
| COc1cccc(Nc2c(-c3ccnc(N)n3)[nH]c3c2C(=O)NCC3)c1C [Compound 705, 2-(2-aminopyrimidin-4-yl)-3-[(3-methoxy-2-methylphenyl)amino]-1H,5H,6H,7H-pyrrolo[3,2-c]pyridin-4-one] | > 1000 | > 1000 | > 1000 | > 1000 | > 1000 |
| Nc1nccc(-c2[nH]c3c(c2Nc2cccc4ccoc24)C(=O)NCC3)n1 [compound 307] | > 1000 | > 1000 | > 1000 | > 1000 | 100 to 1000 |
| COc1c(Cl)cccc1Nc1c(-c2ccnc(N)c2F)[nH]c2c1C(=O)NCC2 [Compound 686, 2-(2-amino-3-fluoropyridin-4-yl)-3-[(3-chloro-2-methoxyphenyl)amino]-1H,5H,6H,7H-pyrrolo[3,2-c]pyridin-4-one; trifluoroacetic acid] | 100 to 1000 | < 100 | < 100 | 100 to 1000 | < 100 |
| Nc1nccc(-c2[nH]c3c(c2Nc2ccc(F)c(F)c2)C(=O)NCC3)n1 [compound 203] | > 1000 | > 1000 | > 1000 | 100 to 1000 | > 1000 |
| COc1c(F)cccc1Nc1c(-c2nnc3cc(C)ccn23)[nH]c2c1C(=O)NCC2 [compound 246] | > 1000 | > 1000 | > 1000 | > 1000 | > 1000 |
| Nc1nccc(-c2[nH]c3c(c2Nc2cc(F)cc(F)c2)C(=O)NCC3)n1 [compound 204] | 100 to 1000 | 100 to 1000 | 100 to 1000 | 100 to 1000 | 100 to 1000 |
| Cc1cccc(F)c1Nc1c(-c2ccnc(N)n2)[nH]c2c1C(=O)NCC2 [compound 198] | > 1000 | > 1000 | > 1000 | > 1000 | > 1000 |
| COc1c(F)cccc1Nc1c(-c2ccncn2)[nH]c2c1C(=O)NCC2 [compound 244] | > 1000 | > 1000 | > 1000 | > 1000 | 100 to 1000 |
| COc1c(Cl)cccc1Nc1c(-c2ccnc(N)n2)[nH]c2c1C(=O)N[C@@H](C)C2 [187a] | > 1000 | 100 to 1000 | 100 to 1000 | 100 to 1000 | < 100 |
| CC#Cc1cccc(Nc2c(-c3ccnc(N)n3)[nH]c3c2C(=O)NCC3)c1OC [Compound 704, 2-(2-aminopyrimidin-4-yl)-3-[[2-methoxy-3-(prop-1-yn-1-yl)phenyl]amino]-1H,5H,6H,7H-pyrrolo[3,2-c]pyridin-4-one] | > 1000 | > 1000 | > 1000 | > 1000 | > 1000 |

Reference: patent US20240101576A1, “HETEROCYCLIC INHIBITORS OF EGFR AND/OR HER2, FOR USE IN THE TREATMENT OF CANCER” (Scorpion Therapeutics, Inc., priority 2020, published 2024)
